Source: patent US11766415B2, “Reducing triglyceride levels and cortisol levels with pharmaceutical preparations” (GLYKON TECHNOLOGIES GROUP, LLC, priority 2020, dated 2023)
One block for each molecule: values may come before it.

Experiments:
Cortisol = assay: Blood cortisol before and 90 minutes after administration; assay type: in vivo, human
Description: (§1) Subject 5 was a person, weighing approximately 285 pounds and with a normal fasting blood sugar level of 115-120. First, blood was drawn from Subject 5 and levels of various biomolecules were measured. Next, Subject 5 was administered 16.66 ml of the Example 1 formulation on an empty stomach, i.e. wherein with each 16.66 ml the subject received 5,000 mg of the potassium-magnesium (−)-hydroxycitric acid salt, corresponding to 3490 mg of (−)-hydroxycitric acid. 90 minutes after the administration, blood was drawn from Subject 5 and levels of the various biomolecules were remeasured.
(§2) Subject 6 was administered 16.66 ml of the Example 1 formulation on an empty stomach, i.e. wherein with each 16.66 ml the subject received 5,000 mg of the potassium-magnesium (−)-hydroxycitric acid salt, corresponding to 3490 mg of (−)-hydroxycitric acid. 90 minutes after the administration, blood was drawn from Subject 6 and levels of the various biomolecules were remeasured.

Triglycerides = assay: Blood triglycerides before and 90 minutes after administration; assay type: in vivo, human
Description: as §1, §2

[1] = system: blood hemoglobin and oxygen saturation; assay: fNIRS measurement of blood hemoglobin and oxygen saturation after oral administration; assay type: in vivo, human; settings: conclusion, summary over subjects
Description: Subjects 1-4 were orally administered the formulation of Example 1. The Subjects were given either one or two administrations of 8.33 ml of the aqueous formulation of Example 1 on an empty stomach, i.e. wherein with each 8.33 ml the subject received 2,500 mg of the potassium-magnesium (−)-hydroxycitric acid salt, corresponding to 1745 mg of (−)-hydroxycitric acid.
fNIRS testing (functional Near Infrared Spectroscopy) was used to measure blood hemoglobin and oxygen saturation. fNIRS can be used to determine real-time peripheral and cerebral hemodynamic responses. For example, relative changes in HbR (deoxygen saturation), HbO (oxygen saturation), and HbT (total hemoglobin concentration), etc. can be determined via application of Modified Beer Lambert Law. HbR, Hb=deoxygen saturation (shown as the thinnest and bottom dashed line in FIG. 1) HbO, HbO2=oxygen saturation (shown as the medium-thickness and middle line in FIG. 1) HbT=total hemoglobin concentration (shown as the darkest, thickest and top line in FIG. 1). On the graphs, time is in seconds.

Ketones = assay: Blood ketones before and 90 minutes after administration; assay type: in vivo, human
Description: as §1

blood sugar = assay: Blood sugar levels after HCA administration; assay type: in vivo, human; settings: conclusion, summary; in some cases only transient
Description: as §1, with “remeasured. […] It is hypothesized that this transient elevation is due to Randall's Cycle. […] In support of this explanation, it is noted that this subject had previously used HCA formulations with the result of keeping their otherwise elevated fasting blood glucose levels in the low- to mid-90s with consistent usage.” for “remeasured.”

ATP citrate lyase = target: T1, ATP citrate lyase (Homo sapiens, UniProt P53396); settings: background statement; cited from earlier work
T1 sequence (P53396 1-1101): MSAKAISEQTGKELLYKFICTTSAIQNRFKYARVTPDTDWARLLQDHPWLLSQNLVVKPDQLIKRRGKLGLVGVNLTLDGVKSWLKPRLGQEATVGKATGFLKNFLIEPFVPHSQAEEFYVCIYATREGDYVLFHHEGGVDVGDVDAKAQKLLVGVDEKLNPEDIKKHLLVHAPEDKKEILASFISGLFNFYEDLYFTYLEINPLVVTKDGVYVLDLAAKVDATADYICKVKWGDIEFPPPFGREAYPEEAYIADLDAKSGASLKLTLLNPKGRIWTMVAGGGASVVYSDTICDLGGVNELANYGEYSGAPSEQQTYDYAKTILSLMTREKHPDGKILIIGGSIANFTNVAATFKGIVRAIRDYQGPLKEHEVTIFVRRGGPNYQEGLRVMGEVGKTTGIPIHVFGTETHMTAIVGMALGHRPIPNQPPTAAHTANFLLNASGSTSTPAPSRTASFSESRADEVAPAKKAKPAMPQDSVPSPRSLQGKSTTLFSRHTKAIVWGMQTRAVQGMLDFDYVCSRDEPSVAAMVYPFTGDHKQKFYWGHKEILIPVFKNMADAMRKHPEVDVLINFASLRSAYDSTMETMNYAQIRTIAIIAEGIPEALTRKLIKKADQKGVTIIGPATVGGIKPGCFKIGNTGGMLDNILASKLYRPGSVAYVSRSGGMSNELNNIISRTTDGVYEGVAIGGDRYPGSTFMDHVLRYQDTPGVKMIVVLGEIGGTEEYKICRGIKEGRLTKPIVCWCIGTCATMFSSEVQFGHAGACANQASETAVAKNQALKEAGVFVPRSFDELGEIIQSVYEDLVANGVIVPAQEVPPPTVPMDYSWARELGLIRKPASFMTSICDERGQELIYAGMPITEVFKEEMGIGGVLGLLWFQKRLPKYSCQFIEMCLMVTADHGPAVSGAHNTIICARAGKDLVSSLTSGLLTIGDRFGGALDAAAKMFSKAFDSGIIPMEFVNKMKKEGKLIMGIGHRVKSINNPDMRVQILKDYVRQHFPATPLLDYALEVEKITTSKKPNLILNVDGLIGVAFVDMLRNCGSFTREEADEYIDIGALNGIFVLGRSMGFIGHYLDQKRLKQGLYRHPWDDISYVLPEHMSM

pancreatic alpha-amylase = target: T2, pancreatic alpha-amylase (Homo sapiens, UniProt P04746); settings: background statement; in vitro; cited from earlier work
T2 sequence (P04746 16-511): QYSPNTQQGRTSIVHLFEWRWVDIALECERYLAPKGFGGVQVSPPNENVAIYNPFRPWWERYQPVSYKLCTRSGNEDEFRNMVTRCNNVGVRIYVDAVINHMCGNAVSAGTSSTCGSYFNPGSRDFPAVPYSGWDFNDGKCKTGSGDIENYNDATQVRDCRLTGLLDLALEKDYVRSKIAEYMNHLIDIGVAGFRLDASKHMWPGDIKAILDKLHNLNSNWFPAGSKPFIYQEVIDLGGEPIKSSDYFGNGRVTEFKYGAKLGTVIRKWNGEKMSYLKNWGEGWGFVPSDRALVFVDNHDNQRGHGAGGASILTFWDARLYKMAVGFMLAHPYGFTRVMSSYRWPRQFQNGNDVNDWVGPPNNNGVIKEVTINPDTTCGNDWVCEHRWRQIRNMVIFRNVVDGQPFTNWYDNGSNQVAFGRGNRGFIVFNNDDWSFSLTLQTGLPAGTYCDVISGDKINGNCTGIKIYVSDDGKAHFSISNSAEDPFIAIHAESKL

[2] = system: intestinal alpha-glucosidase; settings: background statement; in vitro; cited from earlier work
[3] = a subject (Example 3), 5,000 mg salt (3,490 mg (−)-hydroxycitric acid), 90 minutes later
[4] = conclusion, summary over subjects

Molecule: potassium-magnesium salt of (−)-hydroxycitric acid
- decrease in cortisol level (Cortisol; [3]): 20%
- decrease in triglyceride level (Triglycerides; [3]): 67%

- glucose (blood sugar): increased
Molecule: O=C(O)CC(O)(C(=O)O)C(O)C(=O)O (stereo not drawn) [HCA, 1,2-dihydroxypropane-1,2,3-tricarboxylic acid]
- blood hemoglobin [1]: increased
- oxygen saturation [1]: increased
- cortisol (Cortisol; [4]): decreased
- triglycerides (Triglycerides; [4]): decreased
- Ketones Result (Ketones; Subject 5, 5,000 mg salt, empty stomach, 90 mins after administration, before 0.6): 0.5
- levels of ketones (Ketones; conclusion, summary): relatively stable or slightly lower
- inhibition of ATP citrate lyase (ATP citrate lyase): competitive inhibitor

Molecule: O=C(O)C[C@](O)(C(=O)O)[C@H](O)C(=O)O [(2S,3R)-HCA]
- inhibition of pancreatic alpha-amylase (pancreatic alpha-amylase): inhibits
- inhibition of intestinal alpha-glucosidase [2]: inhibits
